Reference: the NIST ThermoML archive (doi:10.1021/acs.jced.7b00002)

Assay: xn = mol fraction of the nth substance listed
Conditions: 97.6 kPa, Liquid; for viscosity: Capillary tube (Ostwald / Ubbelohde) method; for mass density: Vibrating tube method

CCCCCCCC[n+]1ccn(C)c1.[Cl-] [1-methyl-3-octylimidazolium chloride] + C[S+](C)[O-]
Conditions | mass density [kg/m3] | viscosity [mPa·s]
303.15 K, x1 = 0.13 | 1067.88 | 6.85
303.15 K, x1 = 0.253 | 1051.57 | 24.14
303.15 K, x1 = 0.338 | 1042.77 | 55.12
303.15 K, x1 = 0.439 | 1034.29 | 143.43
303.15 K, x1 = 0.574 | 1025.26 | 371.36
303.15 K, x1 = 0.75 | 1015.41 | 1084.7
303.15 K, x1 = 0.862 | 1011.18 | 3235.6
303.15 K, x1 = 1 | 1006.2 | 7339.7
308.15 K, x1 = 0.13 | 1063.71 | 6
308.15 K, x1 = 0.253 | 1047.84 | 19.97
308.15 K, x1 = 0.338 | 1039.2 | 43.8
308.15 K, x1 = 0.439 | 1030.91 | 107.7
308.15 K, x1 = 0.574 | 1022.09 | 264.22
308.15 K, x1 = 0.75 | 1012.38 | 742.47
308.15 K, x1 = 0.862 | 1008.24 | 2150.9
308.15 K, x1 = 1 | 1003.33 | 4272.9
313.15 K, x1 = 0.13 | 1059.55 | 5.24
313.15 K, x1 = 0.253 | 1044.09 | 16.54
313.15 K, x1 = 0.338 | 1035.65 | 34.98
313.15 K, x1 = 0.439 | 1027.54 | 82.42
313.15 K, x1 = 0.574 | 1018.92 | 192.92
313.15 K, x1 = 0.75 | 1009.41 | 508.33
313.15 K, x1 = 0.862 | 1005.31 | 1404.4
313.15 K, x1 = 1 | 1000.48 | 2766.9
318.15 K, x1 = 0.13 | 1055.41 | 4.62
318.15 K, x1 = 0.253 | 1040.39 | 13.89
318.15 K, x1 = 0.338 | 1032.11 | 28.15
318.15 K, x1 = 0.439 | 1024.18 | 63.95
318.15 K, x1 = 0.574 | 1015.75 | 143.95
318.15 K, x1 = 0.75 | 1006.46 | 363.38
318.15 K, x1 = 0.862 | 1002.4 | 943.52
318.15 K, x1 = 1 | 997.64 | 1788.6
323.15 K, x1 = 0.13 | 1051.26 | 4.1
323.15 K, x1 = 0.253 | 1036.65 | 11.8
323.15 K, x1 = 0.338 | 1028.58 | 23.25
323.15 K, x1 = 0.439 | 1020.83 | 50.83
323.15 K, x1 = 0.574 | 1012.58 | 109.49
323.15 K, x1 = 0.75 | 1003.51 | 264.93
323.15 K, x1 = 0.862 | 999.47 | 653.9
323.15 K, x1 = 1 | 994.82 | 1198.7
328.15 K, x1 = 0.13 | 1047.12 | 3.67
328.15 K, x1 = 0.253 | 1032.95 | 10.12
328.15 K, x1 = 0.338 | 1025.06 | 19.36
328.15 K, x1 = 0.439 | 1017.51 | 41.01
328.15 K, x1 = 0.574 | 1009.43 | 84.97
328.15 K, x1 = 0.75 | 1000.56 | 197.17
328.15 K, x1 = 0.862 | 996.58 | 466.77
328.15 K, x1 = 1 | 992 | 828.3
333.15 K, x1 = 0.13 | 1042.98 | 3.31
333.15 K, x1 = 0.253 | 1029.24 | 8.78
333.15 K, x1 = 0.338 | 1021.55 | 16.31
333.15 K, x1 = 0.439 | 1014.19 | 33.28
333.15 K, x1 = 0.574 | 1006.28 | 67.04
333.15 K, x1 = 0.75 | 997.59 | 149.71
333.15 K, x1 = 0.862 | 993.72 | 338.65
333.15 K, x1 = 1 | 989.17 | 588.69
338.15 K, x1 = 0.13 | 1038.85 | 3
338.15 K, x1 = 0.253 | 1025.55 | 7.66
338.15 K, x1 = 0.338 | 1018.05 | 13.91
338.15 K, x1 = 0.439 | 1010.88 | 27.38
338.15 K, x1 = 0.574 | 1003.15 | 53.77
338.15 K, x1 = 0.75 | 994.64 | 115.48
338.15 K, x1 = 0.862 | 990.88 | 250.15
338.15 K, x1 = 1 | 986.38 | 426.28
343.15 K, x1 = 0.13 | 1034.72 | 2.72
343.15 K, x1 = 0.253 | 1021.86 | 6.75
343.15 K, x1 = 0.338 | 1014.56 | 11.95
343.15 K, x1 = 0.439 | 1007.59 | 22.97
343.15 K, x1 = 0.574 | 1000.03 | 43.6
343.15 K, x1 = 0.75 | 991.75 | 90.8
343.15 K, x1 = 0.862 | 988.04 | 189.55
343.15 K, x1 = 1 | 983.63 | 316.66
348.15 K, x1 = 0.13 | 1030.6 | 2.5
348.15 K, x1 = 0.253 | 1018.18 | 5.98
348.15 K, x1 = 0.338 | 1011.07 | 10.37
348.15 K, x1 = 0.439 | 1004.31 | 19.28
348.15 K, x1 = 0.574 | 996.93 | 35.76
348.15 K, x1 = 0.75 | 988.9 | 72.27
348.15 K, x1 = 0.862 | 985.2 | 145.53
348.15 K, x1 = 1 | 980.88 | 237.14
353.15 K, x1 = 0.13 | 1026.47 | 2.29
353.15 K, x1 = 0.253 | 1014.51 | 5.34
353.15 K, x1 = 0.338 | 1007.6 | 9.06
353.15 K, x1 = 0.439 | 1001.04 | 16.49
353.15 K, x1 = 0.574 | 993.83 | 29.9
353.15 K, x1 = 0.75 | 985.96 | 58.87
353.15 K, x1 = 0.862 | 982.37 | 113.93
353.15 K, x1 = 1 | 978.13 | 181.41
